Patent publication US11414385B2, “Compounds and methods for treating, detecting, and identifying compounds to treat apicomplexan parasitic diseases” (The University of Chicago, priority 2015, dated 2022)
Values after ≈ are worked out from the molar mass of the structure shown. Values joined by “and” are separate entries in the source; they are usually repeats but may differ in a detail not shown here. Equal entries are not always repeated. “Also recorded” adds a separate entry of the source. Where two headings read alike, the source gives them in different places.

Tests used:
[1] = system: T. gondii bradyzoites (EGS strain); assay: EGS strain bradyzoite assay (cysts in HFF, dolichos/BAG1 staining); type: cell-based, Toxoplasma gondii
Protocol: (§1) HFF cells were grown in IMDM (1×, [+] glutamine, [+] 25 mM HEPES, [+] Phenol red, 10% FBS, [Gibco, Denmark]) on removable, sterile glass disks in the bottom of a clear, flat-bottomed 24-well plate. Cultures were infected with 3×10^4 parasites (EGS strain) per well, in 0.5 mL media and plate was returned to incubator at 37° C. overnight. The following day, the media was removed and clear IMDM and compounds were added to making various concentrations of the drug, to a total volume of 0.5 mL. Two wells were filled with media only, as a control. Plates were returned to the 37° C. incubator for 72 hours.
Efficacy was determined following fixation. Staining was used to determine the numbers of cysts in cultures without and with treatment with the test compounds. Cells were fixed using 4% paraformaldehyde and stained with Fluorescein-labeled Dolichos Biflorus Agglutinin, DAPI, and anti-BAG1, and anti-SAG1. Disks were removed and mounted onto glass slides and visualized using microscopy (Nikon Tl7). Slides were also scanned using a CRi Pannoramic Scan Whole Slide Scanner and viewed using Panoramic Viewer Software.
as §1, with “[gibco,” for “[Gibco,”, “2” for “Two”, “72 hours, and checked once every 24” for “72”, “hours. If tachyzoites were visible in the control before 72 hours, the cells were fixed and stained.” for “hours.”
Cells were fixed using 4% paraformaldehyde and stained with Fluorescein-labeled Dolichos Biflorus Agglutinin, DAPI, and BAG1. Disks were removed and mounted onto glass slides and visualized using microscopy (Nikon Tl7). Slides were scanned using a CRi Pannoramic Scan Whole Slide Scanner and viewed using Panoramic Viewer Software. Effects of the compounds were quantified by counting cysts in the controls and treated cells. Cysts and persisting organisms were counted in a representative field of view and then multiplied by a factor determined by the total area of the disk in order to estimate the number of cysts and organisms in each condition.
HFF cells were grown in IMDM (1×, [+] glutamine, [+] 25 mM HEPES, [+] Phenol red, 10% FBS, [gibco, Denmark]) on removable, sterile glass disks in the bottom of a clear, flat-bottomed 24-well plate. Cultures were infected with 3×10^4 parasites (EGS strain) per well, in 0.5 mL media and plate was returned to incubator at 37° C. overnight. The following day, the media was removed and clear IMDM and compounds were added to making various concentrations of the drug, to a total volume of 0.5 mL. 2 wells were filled with media only, as a control. Plates were returned to the 37° C. incubator for 72 hours, and checked once every 24 hours. If tachyzoites were visible in the control before 72 hours, the cells were fixed and stained. Cells were fixed using 4% paraformaldehyde and stained with Fluorescein-labeled Dolichos Biflorus Agglutinin, DAPI, and BAG1. Disks were removed and mounted onto glass slides and visualized using microscopy (Nikon Tl7). Slides were scanned using a CRi Pannoramic Scan Whole Slide Scanner and viewed using Panoramic Viewer Software. Effects of the compounds were quantified by counting cysts in the controls and treated cells. Cysts and persisting organisms were counted in a representative field of view and then multiplied by a factor determined by the total area of the disk in order to estimate the number of cysts and organisms in each condition. Data was collected using Gen5 software. IC50 was calculated by graphical analysis in Excel.

[2] = Microsomal metabolic stability, mouse; type: in vitro ADME
[3] = system: P. falciparum strains D6, TM91-C235, W2, C2B; assay: Malaria SYBR Green I-Based Fluorescence (MSF) Assay; type: cell-based, Plasmodium falciparum; conditions: Plasmodium falciparum, read-out: P. falciparum IC50
Protocol: Testing of P. falciparum: D6 is a drug sensitive strain from Sierra Leone, C235 is a multi-drug resistant strain from Thailand, W2 is a chloroquine resistant strain from Thailand, and C2B has resistance to a variety of drugs including atovaquone.
D6 is a drug sensitive strain from Sierra Leone, C235 is a multi-drug resistant strain from Thailand, W2 is a chloroquine resistant strain from Thailand, and C2B has resistance to a variety of drugs including atovaquone. These assays were performed as described.
(§2) Compound activity against P. falciparum, a causative agent of malaria, was tested using the Malaria SYBR Green I—Based Fluorescence (MSF) Assay. This; microtiter plate drug sensitivity assay uses the presence of malarial DNA as a measure of parasitic proliferation in the presence of antimalarial drugs or experimental compounds based on modifications of previously described methods by Plouffe et al (20) and Johnson et al. As the intercalation of SYBR Green I dye and its resulting fluorescence is relative to parasite growth, a test compound that inhibits the growth of the parasite will result in a lower fluorescence.
Selected compounds were examined for activity against four strains of P. falciparum: D6 (CDC/Sierra Leone), a drug-sensitive strain readily killed by chloroquine, TM91-C235, a multi-drug resistant strain resistant to chloroquine, W2, a chloroquine resistant strain from Thailand, and C2B has resistance to a variety of drugs including atovaquone.
D6 is a drug sensitive strain from Sierra Leone, C235 is a multi-drug resistant strain from Thailand, W2 is a chloroquine resistant strain from Thailand, and C2B has resistance to a variety of drugs including atovaquone. These assays were performed using standard protocols.
as §2, with “known in the art.” for “by Plouffe et al (20) and Johnson et al.”, “fluorescence. Selected compounds were examined for activity against four strains of P. falciparum: D6 (CDC/Sierra Leone), a drugsensitive strain readily killed by chloroquine, TM91-C235, a multi-drug resistant strain resistant to chloroquine, W2, a chloroquine resistant strain from Thailand, and C2B has resistance to a variety of drugs including atovaquone.” for “fluorescence.”

[4] = Aqueous kinetic solubility pH 7.4; type: physicochemical; conditions: for solubility kinetic: PBS pH 7.4
[5] = FaSSIF solubility pH 6.5; type: physicochemical; conditions: pH 6.5
[6] = Cytotoxicity assay with WST-1 in HFF; type: cell-based; conditions: human, human foreskin fibroblasts (HFF); read-out: HFF Toxicity CC50
Protocol: (§3) Toxicity assays were conducted using WST-1 cell proliferation reagent (Roche). HFF were grown on a flat, clear-bottomed, black 96-well plate. Confluent HFF were treated with inhibitory compounds at concentrations equal to those being tested in challenge assays. Compounds were diluted in IMDM-C, and 20 μl were added to each designated well, with triplicates for each condition. A gradient of 2 fold-decreasing concentrations of DMSO in clear IMDM-C was used as a control. The plate was incubated for 72 hours at 37° C. 10 μl of WST-1 reagent (Roche) were added to each well and the cells were incubated for 30 to 60 minutes. Absorbance was read using a fluorometer at 420 nm. A higher degree of color change (and absorbance) indicated mitochondrial activity and cell viability.
as §3, with “(Roche) as described in Fomovska, et. al. (18,19).” for “(Roche).”, “of 10 μM and 50 μM.” for “equal to those being tested in challenge assays.”, “DMSO from 10% to 0%” for “DMSO”, “fluorimeter” for “fluorometer”

[7] = Microsomal metabolic stability, human; type: in vitro ADME
[8] = system: RH-YFP; assay: Assessment of compound degradation and microbicidal effect on Toxoplasma; type: cell-based, Toxoplasma gondii
Protocol: HFF were cultured in a 96-well plate and infected with RH-YFP as described above on Day 0, 20 μL of compound was added to 9 wells for each compound and concentration (3 conditions, 3 wells per condition). In condition I, media was removed and replaced with fresh media on Day 3. In condition II, media was removed and replaced with fresh media and more compound on Day 3. In condition III, media was not replaced on Day 3, nor was the compound refreshed. On Day 6, media was removed and replaced with clean media in all wells. On Day 3, 6, and 9 plate was read in the fluorimeter and analyzed graphically in Prism (GraphPad Software).

[9] = in vitro; type: in vitro ADME; conditions: dog, MDCK-MDR1
[10] = system: MDR1; assay: in vitro; type: in vitro ADME; conditions: dog, MDCK-MDR1, MDCK-MDR1 Efflux Ratio
[11] = system: human foreskin fibroblasts (HFF); assay: Cytotoxicity assay with WST-1 in HFF; type: cell-based; conditions: 10 μM and 50 μM, WST-1
Protocol: as §3
as §3, with “(Roche) as described in Fomovska, et. al. (18,19).” for “(Roche).”, “of 10 μM and 50 μM.” for “equal to those being tested in challenge assays.”, “DMSO from 10% to 0%” for “DMSO”, “fluorimeter” for “fluorometer”

[12] = system: S. cerevisiae wild type parental AD1-9 strain; assay: Yeast growth inhibition on glycerol medium, wild type; type: cell-based, Saccharomyces cerevisiae; conditions: 1 mM, 100, 5 and 1 μM
Protocol: Three S. cerevisiae strains were used: M221Q and M221F cytochrome b mutants and wild type. They share the same nuclear genetic background deriving from AD1-9 (kindly given by M. Ghislain, UCL, Belgium). AD1-9 harbors multiple deletions in the ABC transporter genes that render the strain more sensitive to drugs than standard yeast strains^S65.
Protocol: Yeast strains were grown over 48 hours at 33° C. in liquid YPG medium [1% yeast extract, 2% (wt/vol) peptone, and 3% (vol/vol) glycerol). Cultures were diluted to an OD600 of 0.05 and grown for 2 hrs. Cultures were then combined with YPG containing 6% melted agar for a total volume of 15-20 mL and poured onto OmniTray single-well rectangular plates that measured 86 mm by 128 mm (ThermoScientific). Filter paper disks (7 mm diameter, […]) were placed onto the cooled agar plates. […] A single disk with DMSO on each plate was used as a control. Plates were incubated at 33° C. Images were obtained after 4 days using GelDoc XR Imaging System (BioRad) and Quantity One software. Drug effect was assessed by the presence and size of a zone of inhibition around the disks.

With `Cc1[nH]c2ccccc2c(=O)c1-c1ccc(Oc2ccc(OC(F)(F)F)cc2)cc1` [ELQ 271, reference compound] the IC50 ([1]; Toxoplasma gondii, EGS strain, read-out: T. gondii Bradyzoite IC50) was 1000 nM, the “Mouse microsomal stability T1/2” value [2] was greater than 3.33 h and the half-life ([2]; mouse, liver microsomes, read-out: Mouse microsomal stability T1/2) was greater than 3.33 h. The IC50 ([3]; C2B strain (multi-drug resistant, atovaquone resistant)) was 130 nM, the IC50 ([3]; D6 strain (drug sensitive)) was 30 nM and the IC50 ([3]; TM91C235 strain (multi-drug resistant)) was 90 nM. The IC50 ([3]; W2 strain (chloroquine resistant)) was 100 nM, the solubility kinetic [4] was 0.15 µM (≈ 0.0617 µg/mL) and the solubility [5] was 3.4 µM (≈ 1.4 µg/mL). For the same compound, the CC50 at 72 h [6] was 20000 nM and the “Human microsomal stability T1/2” value [7] was 2.87 h and 2.865 h.
For `Cc1[nH]c2c(c(=O)c1-c1ccc(Oc3ccc(Cl)cc3)cc1)CCCC2` [JAG050, 3-(4-(4-chlorophenoxy)phenyl)-2-methyl-5,6,7,8-tetrahydroquinolin-4(1H)-one], the “reduction in the number of true cysts and small organisms” value ([1]; 1 μM and 10 μM, EGS) was “statistically significant reduction”, the Pseudocysts ([1]; part a, 1 μM) was 23.25 ± 10.31 and the Small organisms ([1]; part a, 1 μM) was 58 ± 24. For the same compound, the “True Cysts” value ([1]; part a, 1 μM) was 0.25 ± 0.5, the Pseudocysts ([1]; part a, 10 μM) was 20.5 ± 2.9 and the Small organisms ([1]; part a, 10 μM) was 31 ± 16. The “True Cysts” value ([1]; part a, 10 μM) was 1 ± 0.82, the Pseudocysts ([1]; part b, 1 μM) was 2269 and the Small organisms ([1]; part b, 1 μM) was 5086. The “True Cysts” value ([1]; part b, 1 μM) was 29, the Pseudocysts ([1]; part b, 10 μM) was 1921 and the Small organisms ([1]; part b, 10 μM) was 3018. The “True Cysts” value ([1]; part b, 10 μM) was 88, the “compound degradation over time” value ([8]; 6-day exposure in culture) was “did not appear that the compound was being degraded over time” and the “microbicidal effect” value ([8]; RH-YFP, media replaced) was “Neither compound was found to be microbicidal”. The “Mouse liver microsomes T1/2” value [2] was 1.142 h, the solubility kinetic ([4]; PBS, pH 7.4, aqueous buffer, kinetic from dmso stock) was 16 µM (≈ 5.85 µg/mL) and the Papp A→B [9] was greater than 10 ×10⁻⁶ cm/s. For the same compound, the efflux ratio [10] was less than 1.5, the “toxicity to human foreskin fibroblasts” value [11] was “no toxicity” and the “Human liver microsomes T1/2” value [7] was 1.651 h.
With `Cc1[nH]c2ccccc2c(=O)c1-c1ccc(Oc2ccc(OC(F)(F)F)cc2)cc1` [ELQ271, 2-methyl-3-(4-(4-(trifluoromethoxy)phenoxy)phenyl) quinolin-4(1H)-one, reference compound] the “reduction of EGS cysts in vitro” value ([1]; 10 μM) was “reduce the EGS cysts; also recorded: inhibited EGS in vitro”, the “growth inhibition of wild type yeast” value [12] was “effective” and the “Mouse liver microsomes T1/2” value [2] was 7.4688 h. For the same compound, the solubility ([4]; aqueous buffer, kinetic from dmso stock, 100 mM Phosphate Buffer (pH 7.4)) was 0.15 µM (≈ 0.0617 µg/mL).
